Experimental data reported in PubChem BioAssay (NCI).
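Briefly, cells in 96-well plates were exposed to five compound concentrations for 48 h, and endpoints were estimated by linear interpolation. Here, GI50 denotes the concentration required for 50% inhibition of growth. TGI: concentration producing complete growth inhibition.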

Assays:
Experiment in all cases: NCI anticancer screen, dose series, 48 h
[1] = test system: MCF7 breast
[2] = test system: HL-60(TB) leukemia
[3] = test system: HS 578T breast
[4] = test system: MDA-MB-435
[5] = test system: NCI-H226 lung
[6] = test system: COLO 205 colon
[7] = test system: UO-31 renal
[8] = test system: HOP-92 NSCLC
[9] = test system: BT-549 breast
[10] = test system: OVCAR-8 ovarian
[11] = test system: RXF 393 renal
[12] = test system: SK-MEL-2 melanoma
[13] = test system: RPMI-8226 leukemia
[14] = test system: OVCAR-4 ovarian
[15] = test system: SR leukemia
[16] = test system: CAKI-1 renal
[17] = test system: SNB-75 CNS
[18] = test system: SNB-19 CNS
[19] = test system: TK-10 renal
[20] = test system: SF-295 CNS
[21] = test system: MALME-3M melanoma
[22] = test system: MDA-MB-468 breast
[23] = test system: SK-MEL-28 melanoma
[24] = test system: A498 renal
[25] = test system: HOP-62 NSCLC
[26] = test system: OVCAR-5 ovarian
[27] = test system: NCI-H460 lung
[28] = test system: CCRF-CEM leukemia
[29] = test system: K-562 leukemia
[30] = test system: LOX IMVI melanoma
[31] = test system: NCI-H522 lung
[32] = test system: M14 melanoma
[33] = test system: SW-620 colon
[34] = test system: ACHN renal
[35] = test system: 786-0 renal
[36] = test system: PC-3 prostate
[37] = test system: HCT-116 colon
[38] = test system: SF-539 CNS
[39] = test system: SK-MEL-5 melanoma
[40] = test system: DU-145 prostate
[41] = test system: UACC-257 melanoma
[42] = test system: IGROV1 ovarian
[43] = test system: KM12 colon
[44] = test system: NCI-H23 lung
[45] = test system: EKVX NSCLC
[46] = test system: SF-268 CNS
[47] = test system: UACC-62 melanoma
[48] = test system: A549 NSCLC
[49] = test system: NCI/ADR-RES ovarian
[50] = test system: MOLT-4 leukemia
[51] = test system: OVCAR-3 ovarian
[52] = test system: SN12C renal
[53] = test system: T-47D breast
[54] = test system: MDA-MB-231 breast
[55] = test system: HCC-2998 colon
[56] = test system: HCT-15 colon
[57] = test system: SK-OV-3 ovarian
[58] = test system: HT29 colon
[59] = test system: U251 CNS

Cc1ccc(/C=C/C(=O)c2ccc(S(=O)(=O)NCCNc3nc(Nc4ccc(F)cc4)nc(N(C)C)n3)cc2)cc1
GI50 [1]: 2.01 µM
TGI [1]: 5.8 µM
GI50 [2]: 5.58 µM
TGI [2]: 32.1 µM
GI50 [3]: 10.7 µM
TGI [3]: 47.4 µM
GI50 [4]: 6.03 µM
TGI [4]: 21.6 µM
GI50 [5]: 10.4 µM
TGI [5]: 25.8 µM
GI50 [6]: 6.51 µM
TGI [6]: 20.9 µM
GI50 [7]: 6.77 µM
TGI [7]: 19.8 µM
GI50 [8]: 7.63 µM
TGI [8]: 22.2 µM
GI50 [9]: 15.7 µM
TGI [9]: 30.1 µM
GI50 [10]: 13 µM
TGI [10]: 27 µM
GI50 [11]: 4.98 µM
TGI [11]: 18.2 µM
GI50 [12]: 11.2 µM
TGI [12]: 24.2 µM
GI50 [13]: 2.73 µM
TGI [13]: 8.28 µM
GI50 [14]: 7.79 µM
TGI [14]: 33.8 µM
GI50 [15]: 2.76 µM
TGI [15]: 11.2 µM
GI50 [16]: 6.98 µM
TGI [16]: 22.6 µM
GI50 [17]: 7.59 µM
TGI [17]: 45 µM
GI50 [18]: 11 µM
TGI [18]: 23.6 µM
GI50 [19]: 15.2 µM
TGI [19]: 30.7 µM
GI50 [20]: 11.5 µM
TGI [20]: 23.8 µM
GI50 [21]: 16.4 µM
TGI [21]: 31.6 µM
GI50 [22]: 4.66 µM
TGI [22]: 17 µM
GI50 [23]: 11.3 µM
TGI [23]: 23.7 µM
GI50 [24]: 12.6 µM
TGI [24]: 25.5 µM
GI50 [25]: 15.3 µM
TGI [25]: 31.4 µM
GI50 [26]: 14.9 µM
TGI [26]: 28.2 µM
GI50 [27]: 4.22 µM
TGI [27]: 15.8 µM
GI50 [28]: 5.28 µM
TGI [28]: > 100 µM
GI50 [29]: 3.89 µM
TGI [29]: 25.3 µM
GI50 [30]: 4.12 µM
TGI [30]: 15.3 µM
GI50 [31]: 5.24 µM
TGI [31]: 18.1 µM
GI50 [32]: 5.91 µM
TGI [32]: 19.7 µM
GI50 [33]: 7.53 µM
TGI [33]: 20.9 µM
GI50 [34]: 6.31 µM
TGI [34]: 18.9 µM
GI50 [35]: 10.5 µM
TGI [35]: 23.1 µM
GI50 [36]: 3.54 µM
TGI [36]: 18.2 µM
GI50 [37]: 1.75 µM
TGI [37]: 3.28 µM
GI50 [38]: 13 µM
TGI [38]: 25.9 µM
GI50 [39]: 8.25 µM
TGI [39]: 20.7 µM
GI50 [40]: 14 µM
TGI [40]: 32.4 µM
GI50 [41]: 17.4 µM
TGI [41]: 33.1 µM
GI50 [42]: 15.1 µM
TGI [42]: 31 µM
GI50 [43]: 5.41 µM
TGI [43]: 24.5 µM
GI50 [44]: 11.3 µM
TGI [44]: 23.8 µM
GI50 [45]: 4.96 µM
TGI [45]: 16.9 µM
GI50 [46]: 8.76 µM
TGI [46]: 29.2 µM
GI50 [47]: 8.4 µM
TGI [47]: 21.1 µM
GI50 [48]: 10.5 µM
TGI [48]: 28.6 µM
GI50 [49]: 8.39 µM
TGI [49]: 21.1 µM
GI50 [50]: 3.86 µM
TGI [50]: 48.6 µM
GI50 [51]: 11.3 µM
TGI [51]: 24.8 µM
GI50 [52]: 11.2 µM
TGI [52]: 23.4 µM
GI50 [53]: 3.86 µM
TGI [53]: 17.8 µM
GI50 [54]: 6.56 µM
TGI [54]: 20 µM
GI50 [55]: 4.5 µM
TGI [55]: 15.8 µM
GI50 [56]: 3.92 µM
TGI [56]: 10.9 µM
GI50 [57]: 17 µM
TGI [57]: 45.9 µM
GI50 [58]: 2.38 µM
TGI [58]: 5.25 µM
GI50 [59]: 11.6 µM
TGI [59]: 26 µM
